According to ChEMBL document CHEMBL3885861, “Open TG-GATES”:

Species: Rattus norvegicus
Assay: Open TG-GATES - Regimen: Single
Type: toxicity, organism-based, Sprague-Dawley
Design: regimen Single, gender Male, age 6 weeks
Conditions: in vivo, po, 100 mg/kg, route gavage, dose level Middle; for APTT / Bas / Eos / Fbg / Hb / Ht / Lym / MCHC / MCV / Mono / Neu / PT / Plat / RBC / Ret / WBC: tissue Blood; for KIDNEY_L / KIDNEY_R / KIDNEY_TOTAL: tissue Kidney; for LIVER: tissue Liver; for ALP / ALT / AST / BUN / CRE / Ca / Cl / DBIL / GLC / IP / K / LDH / Na / PL / RALB / TBIL / TC / TG / TP / gamma-GTP: tissue Plasma

CS(=O)(=O)Nc1ccc([N+](=O)[O-])cc1Oc1ccccc1 [NIMESULIDE]
TERMINAL_BW (3 h): 203.6 g | APTT (3 h): 16.7 s | Bas (3 h): 0% | Eos (3 h): 1.2% | Fbg (3 h): 201.6 mg/dL | Hb (3 h): 13.1 g/dL | Ht (3 h): 38.3% | Lym (3 h): 71.4% | MCHC (3 h): 34.3% | MCV (3 h): 65.8 fL | Mono (3 h): 8.2% | Neu (3 h): 19.2% | PT (3 h): 12.2 s | Plat (3 h): 110 x10_4/uL | RBC (3 h): 582.2 x10_4/ul | Ret (3 h): 11.3% | WBC (3 h): 87.9 x10_2/uL | KIDNEY_L (3 h): 0.9 g | KIDNEY_R (3 h): 0.9 g | KIDNEY_TOTAL (3 h): 1.8 g | LIVER (3 h): 9.5 g | ALP (3 h): 901.6 IU/L | ALT (3 h): 36.2 IU/L | AST (3 h): 66.6 IU/L | BUN (3 h): 14 mg/dL | CRE (3 h): 0.6 mg/dL | Ca (3 h): 11 mg/dL | Cl (3 h): 105.8 meq/L | DBIL (3 h): 0.06 mg/dL | GLC (3 h): 233.2 mg/dL | IP (3 h): 9.6 mg/dL | K (3 h): 5 meq/L | LDH (3 h): 93.8 IU/L | Na (3 h): 140.2 meq/L | PL (3 h): 145.4 mg/dL | RALB (3 h): 3.9 g/dL | TBIL (3 h): 0.4 mg/dL | TC (3 h): 85.2 mg/dL | TG (3 h): 54.8 mg/dL | TP (3 h): 5.2 g/dL | gamma-GTP (3 h): 1 IU/L | TERMINAL_BW (6 h): 202.6 g | APTT (6 h): 18.2 s | Bas (6 h): 0% | Eos (6 h): 1% | Fbg (6 h): 211.2 mg/dL | Hb (6 h): 13.2 g/dL | Ht (6 h): 39.2% | Lym (6 h): 73.2% | MCHC (6 h): 33.6% | MCV (6 h): 65.7 fL | Mono (6 h): 4.4% | Neu (6 h): 21.8% | PT (6 h): 12.4 s | Plat (6 h): 119.2 x10_4/uL | RBC (6 h): 596.6 x10_4/ul | Ret (6 h): 9% | WBC (6 h): 69.4 x10_2/uL | KIDNEY_L (6 h): 0.9 g | KIDNEY_R (6 h): 1 g | KIDNEY_TOTAL (6 h): 1.9 g | LIVER (6 h): 8.6 g | ALP (6 h): 733.2 IU/L | ALT (6 h): 36.4 IU/L | AST (6 h): 67.2 IU/L | BUN (6 h): 14.8 mg/dL | CRE (6 h): 0.7 mg/dL | Ca (6 h): 10.5 mg/dL | Cl (6 h): 103.4 meq/L | DBIL (6 h): 0.072 mg/dL | GLC (6 h): 258 mg/dL | IP (6 h): 10.4 mg/dL | K (6 h): 4.3 meq/L | LDH (6 h): 79.6 IU/L | Na (6 h): 139.8 meq/L | PL (6 h): 132.8 mg/dL | RALB (6 h): 3.7 g/dL | TBIL (6 h): 0.5 mg/dL | TC (6 h): 79.8 mg/dL | TG (6 h): 28 mg/dL | TP (6 h): 5.3 g/dL | gamma-GTP (6 h): 1.6 IU/L | TERMINAL_BW (9 h): 194.5 g | APTT (9 h): 19.5 s | Bas (9 h): 0% | Eos (9 h): 0.6% | Fbg (9 h): 214.8 mg/dL | Hb (9 h): 13.6 g/dL | Ht (9 h): 40.6% | Lym (9 h): 79.2% | MCHC (9 h): 33.5% | MCV (9 h): 65.2 fL | Mono (9 h): 6% | Neu (9 h): 14.4% | PT (9 h): 12.5 s | Plat (9 h): 117.1 x10_4/uL | RBC (9 h): 621.8 x10_4/ul | Ret (9 h): 11.2% | WBC (9 h): 80.5 x10_2/uL | KIDNEY_L (9 h): 0.9 g | KIDNEY_R (9 h): 0.9 g | KIDNEY_TOTAL (9 h): 1.8 g | LIVER (9 h): 7.9 g | ALP (9 h): 917.4 IU/L | ALT (9 h): 32.8 IU/L | AST (9 h): 62.4 IU/L | BUN (9 h): 12.6 mg/dL | CRE (9 h): 0.6 mg/dL | Ca (9 h): 10.6 mg/dL | Cl (9 h): 107.2 meq/L | DBIL (9 h): 0.018 mg/dL | GLC (9 h): 234 mg/dL | IP (9 h): 9.5 mg/dL | K (9 h): 5 meq/L | LDH (9 h): 72 IU/L | Na (9 h): 138.2 meq/L | PL (9 h): 137.8 mg/dL | RALB (9 h): 4 g/dL | TBIL (9 h): 0.4 mg/dL | TC (9 h): 77.8 mg/dL | TG (9 h): 28.6 mg/dL | TP (9 h): 5.4 g/dL | gamma-GTP (9 h): 1 IU/L | TERMINAL_BW (24 h): 205.9 g | APTT (24 h): 17.2 s | Bas (24 h): 0% | Eos (24 h): 1% | Fbg (24 h): 216.6 mg/dL | Hb (24 h): 13.8 g/dL | Ht (24 h): 40.7% | Lym (24 h): 69% | MCHC (24 h): 33.7% | MCV (24 h): 64.1 fL | Mono (24 h): 6.8% | Neu (24 h): 23.4% | PT (24 h): 12 s | Plat (24 h): 116.2 x10_4/uL | RBC (24 h): 636.2 x10_4/ul | Ret (24 h): 10% | WBC (24 h): 104.6 x10_2/uL | KIDNEY_L (24 h): 0.9 g | KIDNEY_R (24 h): 0.9 g | KIDNEY_TOTAL (24 h): 1.9 g | LIVER (24 h): 10.2 g | ALP (24 h): 976.6 IU/L | ALT (24 h): 37.2 IU/L | AST (24 h): 66.8 IU/L | BUN (24 h): 20.8 mg/dL | CRE (24 h): 0.6 mg/dL | Ca (24 h): 10.7 mg/dL | Cl (24 h): 106.6 meq/L | DBIL (24 h): 0.024 mg/dL | GLC (24 h): 185.6 mg/dL | IP (24 h): 6.6 mg/dL | K (24 h): 4.9 meq/L | LDH (24 h): 105.6 IU/L | Na (24 h): 140.4 meq/L | PL (24 h): 148 mg/dL | RALB (24 h): 3.9 g/dL | TBIL (24 h): 0.3 mg/dL | TC (24 h): 81.6 mg/dL | TG (24 h): 110.6 mg/dL | TP (24 h): 5.4 g/dL | gamma-GTP (24 h): 1.8 IU/L
